Test results reported in patent US20240116985A1, “STAPLED PEPTIDES AND METHODS THEREOF” (priority 2020, published 2024).
Where two headings read alike, the source gives them in different places.

Target: T1, full-length beta-Catenin (Uniprot ID P35222) (Homo sapiens, UniProt P35222)
T1 construct: 10 nM full-length beta-Catenin (Uniprot ID P35222)
T1 sequence (P35222 1-781): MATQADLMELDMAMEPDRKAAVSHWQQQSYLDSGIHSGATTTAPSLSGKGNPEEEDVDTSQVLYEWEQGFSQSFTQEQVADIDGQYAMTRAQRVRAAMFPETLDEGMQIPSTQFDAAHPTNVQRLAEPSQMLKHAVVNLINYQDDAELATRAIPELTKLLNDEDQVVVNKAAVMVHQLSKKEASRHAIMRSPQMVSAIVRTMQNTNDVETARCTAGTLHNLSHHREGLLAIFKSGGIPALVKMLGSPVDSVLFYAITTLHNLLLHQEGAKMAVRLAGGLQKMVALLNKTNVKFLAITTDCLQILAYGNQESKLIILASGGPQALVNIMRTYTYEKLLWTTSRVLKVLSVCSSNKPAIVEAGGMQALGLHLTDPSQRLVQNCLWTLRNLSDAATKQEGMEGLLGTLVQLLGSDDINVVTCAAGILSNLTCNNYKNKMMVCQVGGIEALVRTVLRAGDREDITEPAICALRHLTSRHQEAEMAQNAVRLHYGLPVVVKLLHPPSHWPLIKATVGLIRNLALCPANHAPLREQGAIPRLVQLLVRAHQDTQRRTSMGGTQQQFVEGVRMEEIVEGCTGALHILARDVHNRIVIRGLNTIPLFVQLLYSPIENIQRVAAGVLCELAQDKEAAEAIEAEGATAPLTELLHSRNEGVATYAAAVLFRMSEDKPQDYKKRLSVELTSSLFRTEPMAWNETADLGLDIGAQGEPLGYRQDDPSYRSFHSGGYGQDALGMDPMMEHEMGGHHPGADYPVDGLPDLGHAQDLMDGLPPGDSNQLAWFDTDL
Test: Fluorescence polarization IC50 (beta-catenin / 5FAM-TCF4 10-53 competition)
Format: binding
Details: fluorescence polarization

IC50 (read-out: beta-Catenin FP IC50)	Compound	IC50 (beta-Catenin FP IC50 (nM))
11 nM	CC(=O)N1CCC[C@]12CC=CCCCC1(CCCC=CCCCOC(=O)N3CC[C@@](C(=O)N[C@@H](Cc4ccsc4)C(=O)N[C@@H](Cc4csc5ccccc45)C(=O)N[C@@H](CCC(N)=O)C(N)=O)(C3)NC(=O)[C@H](CC(C)C)NC(=O)[C@H](Cc3ccccc3)NC(=O)[C@H](C)NC(=O)[C@H](C)NC(=O)[C@H](CN(CC(=O)O)C(=O)c3ccc(CN4CCOCC4)cc3)NC(=O)[C@H](CC(=O)O)NC1=O)NC(=O)[C@H](CC(C)(C)C)NC(=O)[C@H](CC(=O)O)NC2=O (stereo partly drawn) [I-2238, Ac-PL3-Asp-Npg-B5-Asp-[MeMorphBz]GA-Ala-Ala-Phe-Leu-PyrS2-3Thi-BztA-Gln-NH2]	–
16 nM	CC(=O)N1CCC[C@]12CC=CCCCC1(CCCC=CCCCOC(=O)N3CC[C@@](C(=O)N[C@@H](Cc4ccsc4)C(=O)N[C@@H](Cc4csc5ccccc45)C(=O)N[C@@H](CCC(N)=O)C(N)=O)(C3)NC(=O)[C@H](CC(C)C)NC(=O)[C@H](Cc3ccccc3)NC(=O)[C@H](C)NC(=O)[C@H](C)NC(=O)[C@H](CCN(CC(=O)O)C(=O)CCN(C)C)NC(=O)[C@H](CC(=O)O)NC1=O)NC(=O)[C@H](CC(C)(C)C)NC(=O)[C@H](CC(=O)O)NC2=O (stereo partly drawn) [I-2244, Ac-PL3-Asp-Npg-B5-Asp-[Me2NPr]GAbu-Ala-Ala-Phe-Leu-PyrS2-3Thi-BztA-Gln-NH2]	–
14 nM	CC(=O)N1CCC[C@]12CC=CCCCC1(CCCC=CCCCOC(=O)N3CC[C@@](C(=O)N[C@@H](Cc4ccsc4)C(=O)N[C@@H](Cc4csc5ccccc45)C(=O)N[C@@H](CCC(N)=O)C(N)=O)(C3)NC(=O)[C@H](CC(C)C)NC(=O)[C@H](Cc3ccccc3)NC(=O)[C@H](C)NC(=O)[C@H](C)NC(=O)[C@H](CCN(CC(=O)O)C(=O)CN3CCOCC3)NC(=O)[C@H](CC(=O)O)NC1=O)NC(=O)[C@H](CC(C)(C)C)NC(=O)[C@H](CC(=O)O)NC2=O (stereo partly drawn) [I-2249, Ac-PL3-Asp-Npg-B5-Asp-[MorphAc]GAbu-Ala-Ala-Phe-Leu-PyrS2-3Thi-BztA-Gln-NH2]	–
12 nM	CC(=O)N1CCC[C@]12CC=CCCCC1(CCCC=CCCCOC(=O)N3CC[C@@](C(=O)N[C@@H](Cc4ccsc4)C(=O)N[C@@H](Cc4csc5ccccc45)C(=O)N[C@@H](CCC(N)=O)C(N)=O)(C3)NC(=O)[C@H](CC(C)C)NC(=O)[C@H](Cc3ccccc3)NC(=O)[C@H](C)NC(=O)[C@H](C)NC(=O)[C@H](CCN(CC(=O)O)C(=O)CN3CCN(C)CC3)NC(=O)[C@H](CC(=O)O)NC1=O)NC(=O)[C@H](CC(C)(C)C)NC(=O)[C@H](CC(=O)O)NC2=O (stereo partly drawn) [I-2250, Ac-PL3-Asp-Npg-B5-Asp-[MePipAc]GAbu-Ala-Ala-Phe-Leu-PyrS2-3Thi-BztA-Gln-NH2]	–
–	CC(C)C[C@@H]1NC(=O)[C@H](Cc2ccccc2)NC(=O)[C@H](C)NC(=O)[C@H](C)NC(=O)[C@H](Cc2cccc(C(=O)O)c2)NC(=O)[C@H](CC(=O)O)NC(=O)C2(CCCC=CCCCOC(=O)N3CC[C@@](C(=O)N[C@@H](Cc4ccccc4Cl)C(=O)N[C@@H](Cc4csc5ccccc45)C(=O)N[C@@H](C)C(N)=O)(C3)NC1=O)CCCC=CC[C@]1(CCCN1C(=O)CCl)C(=O)N[C@@H](CC(=O)O)C(=O)N[C@@H](CC(C)(C)C)C(=O)N2 (stereo partly drawn) [I-2253, ClAc-PL3-Asp-Npg-B5-Asp-3COOHF-Ala-Ala-Phe-Leu-PyrS2-2C1F-BztA-Ala-NH2]	189 nM
5790 nM	CC(=O)N1CCC[C@]12CC=CCCCC1(CCCC=CCCCOC(=O)N3CC[C@@](C(=O)N[C@@H](Cc4cccc(-c5ccccc5)c4)C(=O)N[C@@H](Cc4ccsc4)C(=O)N[C@@H](CCC(N)=O)C(N)=O)(C3)NC(=O)[C@H](CC(C)C)NC(=O)[C@H](Cc3ccccc3)NC(=O)[C@H](C)NC(=O)[C@H](C)NC(=O)[C@H](Cc3cccc(C(=O)O)c3)NC(=O)[C@H](CC(=O)O)NC1=O)NC(=O)[C@H](CC(C)(C)C)NC(=O)[C@H](CC(=O)O)NC2=O (stereo partly drawn) [I-2254, Ac-PL3-Asp-Npg-B5-Asp-3COOHF-Ala-Ala-Phe-Leu-PyrS2-[Ph]3SF-3Thi-Gln-NH2]	–
7650 nM	CC(=O)N1CCC[C@]12CC=CCCCC1(CCCC=CCCCOC(=O)N3CC[C@@](C(=O)N[C@@H](Cc4cccc(-c5ccccc5)c4)C(=O)N[C@@H](CC4CCC4)C(=O)N[C@@H](CCC(N)=O)C(N)=O)(C3)NC(=O)[C@H](CC(C)C)NC(=O)[C@H](Cc3ccccc3)NC(=O)[C@H](C)NC(=O)[C@H](C)NC(=O)[C@H](Cc3cccc(C(=O)O)c3)NC(=O)[C@H](CC(=O)O)NC1=O)NC(=O)[C@H](CC(C)(C)C)NC(=O)[C@H](CC(=O)O)NC2=O (stereo partly drawn) [I-2255, Ac-PL3-Asp-Npg-B5-Asp-3COOHF-Ala-Ala-Phe-Leu-PyrS2-[Ph]3SF-Cba-Gln-NH2]	–
8410 nM	CC(=O)N1CCC[C@]12CC=CCCCC1(CCCC=CCCCOC(=O)N3CC[C@@](C(=O)N[C@@H](Cc4cccc(-c5ccccc5)c4)C(=O)N[C@@H](Cc4ccccc4C(F)(F)F)C(=O)N[C@@H](CCC(N)=O)C(N)=O)(C3)NC(=O)[C@H](CC(C)C)NC(=O)[C@H](Cc3ccccc3)NC(=O)[C@H](C)NC(=O)[C@H](C)NC(=O)[C@H](Cc3cccc(C(=O)O)c3)NC(=O)[C@H](CC(=O)O)NC1=O)NC(=O)[C@H](CC(C)(C)C)NC(=O)[C@H](CC(=O)O)NC2=O (stereo partly drawn) [I-2256, Ac-PL3-Asp-Npg-B5-Asp-3COOHF-Ala-Ala-Phe-Leu-PyrS2-[Ph]3SF-2F3MeF-Gln-NH2]	–
272 nM	CC(=O)N1CCC[C@]12CC=CCCCC1(CCCC=CCCCOC(=O)N3CC[C@@](C(=O)N[C@@H](Cc4ccsc4)C(=O)N[C@@H](Cc4csc5ccccc45)C(=O)N[C@@H](C)C(N)=O)(C3)NC(=O)[C@H](CC(C)C)NC(=O)[C@H](Cc3ccccc3)NC(=O)[C@H](C)NC(=O)[C@H](C)NC(=O)[C@H](Cc3cccc(C(=O)O)c3)NC(=O)[C@H](CC(=O)O)NC1=O)NC(=O)[C@H](CC(C)(C)C)NC(=O)[C@H]([C@@H](O)C(=O)O)NC2=O (stereo partly drawn) [I-2258, Ac-PL3-RbOHAsp-Npg-B5-Asp-3COOHF-Ala-Ala-Phe-Leu-PyrS2-3Thi-BztA-Ala-NH2]	–
45 nM	CC(=O)N1CC2CC1C(=O)N[C@@H](CC(=O)O)C(=O)N[C@@H](CC(C)(C)C)C(=O)NC1(CCCC=CCCCOC(=O)N3CC[C@@](C(=O)N[C@@H](Cc4ccsc4)C(=O)N[C@@H](Cc4csc5ccccc45)C(=O)N[C@@H](CCC(N)=O)C(N)=O)(C3)NC(=O)[C@H](CC(C)C)NC(=O)[C@H](Cc3ccccc3)NC(=O)[C@H](C)NC(=O)[C@H](C)NC(=O)[C@H](CN(CC(=O)O)CC(F)(F)F)NC(=O)[C@H](CC(=O)O)NC1=O)CCCC=CCCC(=O)O2 (stereo partly drawn) [I-2264, Ac-HypEs5-Asp-Npg-B5-Asp-TfeGA-Ala-Ala-Phe-Leu-PyrS2-3Thi-BztA-Gln-NH2]	–
266 nM	CC(C)C[C@@H]1NC(=O)[C@H](Cc2ccccc2)NC(=O)[C@H](C)NC(=O)[C@H](C)NC(=O)[C@H](CN(CC(=O)O)CC(F)(F)F)NC(=O)[C@H](CC(=O)O)NC(=O)C2(CCCC=CCCCOC(=O)N3CC[C@@](C(=O)N[C@@H](Cc4ccsc4)C(=O)N[C@@H](Cc4csc5ccccc45)C(=O)N[C@@H](CCC(N)=O)C(N)=O)(C3)NC1=O)CCCC=CCS(=O)(=O)N1CCC[C@@H]1C(=O)N[C@@H](CC(=O)O)C(=O)N[C@@H](CC(C)(C)C)C(=O)N2 (stereo partly drawn) [I-2266, ProSAm3-Asp-Npg-B5-Asp-TfeGA-Ala-Ala-Phe-Leu-PyrS2-3Thi-BztA-Gln-NH2]	–
